# Earlier results, collected in patent US8202858B2, “Vasopressin V1a antagonists” (priority 2004, dated 2012).
# Molecular target: T1, V1a vasopressin receptor (Homo sapiens, UniProt P37288)
# T1 construct: host or cells: patients (clinical study)
# Details: patients with dysmenorrhoea, compared to placebo
# T1 sequence (P37288 whole entry): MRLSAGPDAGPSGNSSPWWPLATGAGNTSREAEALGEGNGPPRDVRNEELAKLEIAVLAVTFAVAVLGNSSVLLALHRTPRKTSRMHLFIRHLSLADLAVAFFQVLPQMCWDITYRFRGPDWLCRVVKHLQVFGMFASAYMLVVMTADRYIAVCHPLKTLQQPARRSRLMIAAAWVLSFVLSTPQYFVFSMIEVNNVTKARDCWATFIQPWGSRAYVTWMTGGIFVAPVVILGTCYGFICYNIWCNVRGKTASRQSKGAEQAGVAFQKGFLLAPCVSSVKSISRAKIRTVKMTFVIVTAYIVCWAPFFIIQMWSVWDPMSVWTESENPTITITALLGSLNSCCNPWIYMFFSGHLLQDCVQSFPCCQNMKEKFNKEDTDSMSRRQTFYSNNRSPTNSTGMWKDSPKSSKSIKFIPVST
compound,measurement,value
COc1ccc(S(=O)(=O)N2c3ccc(Cl)cc3[C@](O)(c3ccccc3Cl)[C@@H]2C(=O)N2CCC[C@H]2C(N)=O)cc1OC [SR49059],amount of additional pain-killer taken,dose-related decrease in the amount of additional pain-killer taken
same,pain,dose-related decrease in pain
